Experimental data: PubChem BioAssay (NCI)
Converted amounts (≈) assume the structure as drawn.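 Briefly, cells in 96-well plates were exposed to five compound concentrations for 48 h, and endpoints were estimated by linear interpolation. GI50 marks 50% less growth. TGI denotes the concentration required for complete inhibition of growth.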

How the values were obtained:
Assay in all cases: NCI-60 cell line screen, 48 h
[1] = tested on: UACC-257 melanoma
[2] = tested on: RPMI-8226 leukemia
[3] = tested on: OVCAR-4 ovarian
[4] = tested on: RXF 393 renal
[5] = tested on: KM12 colon
[6] = tested on: NCI-H460 lung
[7] = tested on: SF-295 CNS
[8] = tested on: HCC-2998 colon
[9] = tested on: NCI-H23 lung
[10] = tested on: SF-539 CNS
[11] = tested on: SK-MEL-5 melanoma
[12] = tested on: MCF7 breast
[13] = tested on: OVCAR-8 ovarian
[14] = tested on: MDA-MB-435
[15] = tested on: SNB-75 CNS
[16] = tested on: SNB-19 CNS
[17] = tested on: HOP-62 NSCLC
[18] = tested on: LOX IMVI melanoma
[19] = tested on: CCRF-CEM leukemia
[20] = tested on: UACC-62 melanoma
[21] = tested on: M14 melanoma
[22] = tested on: MALME-3M melanoma
[23] = tested on: T-47D breast
[24] = tested on: NCI/ADR-RES ovarian
[25] = tested on: IGROV1 ovarian
[26] = tested on: SK-OV-3 ovarian
[27] = tested on: NCI-H226 lung
[28] = tested on: HCT-15 colon
[29] = tested on: OVCAR-3 ovarian
[30] = tested on: MOLT-4 leukemia
[31] = tested on: U251 CNS
[32] = tested on: A498 renal
[33] = tested on: CAKI-1 renal
[34] = tested on: SK-MEL-2 melanoma
[35] = tested on: COLO 205 colon
[36] = tested on: K-562 leukemia
[37] = tested on: UO-31 renal
[38] = tested on: HL-60(TB) leukemia
[39] = tested on: ACHN renal
[40] = tested on: 786-0 renal
[41] = tested on: DU-145 prostate
[42] = tested on: HCT-116 colon
[43] = tested on: NCI-H522 lung
[44] = tested on: TK-10 renal
[45] = tested on: SR leukemia
[46] = tested on: HOP-92 NSCLC
[47] = tested on: BT-549 breast
[48] = tested on: OVCAR-5 ovarian
[49] = tested on: MDA-MB-231 breast
[50] = tested on: SK-MEL-28 melanoma
[51] = tested on: A549 NSCLC
[52] = tested on: SN12C renal
[53] = tested on: HT29 colon
[54] = tested on: EKVX NSCLC
[55] = tested on: SF-268 CNS
[56] = tested on: SW-620 colon
[57] = tested on: HS 578T breast
[58] = tested on: PC-3 prostate

SMILES: O=C(O)c1ccc(N/C=C2\C(=O)c3ccccc3OC2O)cc1O (stereo unspecified)
- GI50 [1]: 28.9 µg/mL
- TGI [1]: 93.1 µg/mL
- GI50 [2]: 2.45 µg/mL
- TGI [2]: 8.67 µg/mL
- GI50 [3]: 20.6 µg/mL
- TGI [3]: > 150 µg/mL
- GI50 [4]: 12.6 µg/mL
- TGI [4]: 34.5 µg/mL
- GI50 [5]: 23.4 µg/mL
- TGI [5]: 48.5 µg/mL
- GI50 [6]: 32.3 µg/mL
- TGI [6]: 78.3 µg/mL
- GI50 [7]: 5.96 µg/mL
- TGI [7]: 28.7 µg/mL
- GI50 [8]: 24.1 µg/mL
- TGI [8]: 45.4 µg/mL
- GI50 [9]: 19 µg/mL
- TGI [9]: 58.4 µg/mL
- GI50 [10]: 16.5 µg/mL
- TGI [10]: 39.1 µg/mL
- GI50 [11]: 17.6 µg/mL
- TGI [11]: 37.6 µg/mL
- GI50 [12]: 12.6 µg/mL
- TGI [12]: 81.8 µg/mL
- GI50 [13]: 22 µg/mL
- TGI [13]: 97.2 µg/mL
- GI50 [14]: 20.2 µg/mL
- TGI [14]: 68.4 µg/mL
- GI50 [15]: 17.7 µg/mL
- TGI [15]: 84.3 µg/mL
- GI50 [16]: 18.4 µg/mL
- TGI [16]: 72.4 µg/mL
- GI50 [17]: 24.8 µg/mL
- TGI [17]: 63.7 µg/mL
- GI50 [18]: 22.5 µg/mL
- TGI [18]: 73.3 µg/mL
- GI50 [19]: 13.8 µg/mL
- TGI [19]: 59.6 µg/mL
- GI50 [20]: 17.4 µg/mL
- TGI [20]: 52.4 µg/mL
- GI50 [21]: 21.5 µg/mL
- TGI [21]: 47.5 µg/mL
- GI50 [22]: 10 µg/mL
- TGI [22]: 38.9 µg/mL
- GI50 [23]: 6.18 µg/mL
- TGI [23]: 50.3 µg/mL
- GI50 [24]: 22.3 µg/mL
- TGI [24]: 78.6 µg/mL
- GI50 [25]: 12.8 µg/mL
- TGI [25]: 47.3 µg/mL
- GI50 [26]: 28.8 µg/mL
- TGI [26]: 74.6 µg/mL
- GI50 [27]: 46.5 µg/mL
- TGI [27]: > 150 µg/mL
- GI50 [28]: 6.17 µg/mL
- TGI [28]: 26.6 µg/mL
- GI50 [29]: 8.41 µg/mL
- TGI [29]: 41.9 µg/mL
- GI50 [30]: 13.2 µg/mL
- TGI [30]: 77.9 µg/mL
- GI50 [31]: 17.2 µg/mL
- TGI [31]: 45.1 µg/mL
- GI50 [32]: 36.9 µg/mL
- TGI [32]: 83.9 µg/mL
- GI50 [33]: 10.8 µg/mL
- TGI [33]: 32.5 µg/mL
- GI50 [34]: 23.5 µg/mL
- TGI [34]: 51.1 µg/mL
- GI50 [35]: 30.5 µg/mL
- TGI [35]: 76.4 µg/mL
- GI50 [36]: 16 µg/mL
- TGI [36]: 87.2 µg/mL
- GI50 [37]: 6.68 µg/mL
- TGI [37]: 36.4 µg/mL
- GI50 [38]: 9.35 µg/mL
- TGI [38]: > 150 µg/mL
- GI50 [39]: 29 µg/mL
- TGI [39]: 84.6 µg/mL
- GI50 [40]: 28.5 µg/mL
- TGI [40]: 52.3 µg/mL
- GI50 [41]: 22.7 µg/mL
- TGI [41]: 65.6 µg/mL
- GI50 [42]: 17.9 µg/mL
- TGI [42]: 42.7 µg/mL
- GI50 [43]: 28 µg/mL
- TGI [43]: 62.9 µg/mL
- GI50 [44]: 36 µg/mL
- TGI [44]: 106 µg/mL
- GI50 [45]: 5.21 µg/mL
- TGI [45]: 41 µg/mL (≈ 125 µM)
- GI50 [46]: 4.11 µg/mL
- TGI [46]: 36.5 µg/mL
- GI50 [47]: 19 µg/mL
- TGI [47]: 71.2 µg/mL
- GI50 [48]: 31.2 µg/mL
- TGI [48]: 78.5 µg/mL
- GI50 [49]: 22 µg/mL
- TGI [49]: 54.6 µg/mL
- GI50 [50]: 25.1 µg/mL
- TGI [50]: 69.2 µg/mL
- GI50 [51]: 55.1 µg/mL
- TGI [51]: > 150 µg/mL
- GI50 [52]: 20.2 µg/mL
- TGI [52]: 58.8 µg/mL
- GI50 [53]: 29.7 µg/mL
- TGI [53]: 83.2 µg/mL
- GI50 [54]: 23.9 µg/mL
- TGI [54]: 82.5 µg/mL
- GI50 [55]: 21.8 µg/mL
- TGI [55]: 134 µg/mL
- GI50 [56]: 20.3 µg/mL
- TGI [56]: 48.3 µg/mL
- GI50 [57]: 11.2 µg/mL
- TGI [57]: 76.5 µg/mL
- GI50 [58]: 31.6 µg/mL
- TGI [58]: 107 µg/mL

SMILES: CC(C)NC(=O)OCc1c(COC(=O)NC(C)C)c(-c2ccc(Cl)cc2)n2c1CCC2
- GI50 [1]: 4.16 µM
- TGI [1]: 29.4 µM
- GI50 [2]: 2.6 µM
- TGI [2]: 23.8 µM
- GI50 [3]: 2.7 µM
- TGI [3]: 14.3 µM
- GI50 [4]: 1.85 µM
- TGI [4]: 4.32 µM
- GI50 [5]: 11 µM
- TGI [5]: 25.9 µM
- GI50 [6]: 0.751 µM
- TGI [6]: 14.4 µM
- GI50 [7]: 1.58 µM
- TGI [7]: 10.6 µM
- GI50 [8]: 6.77 µM
- TGI [8]: 20.4 µM
- GI50 [9]: 2.15 µM
- TGI [9]: 12.5 µM
- GI50 [10]: 2.53 µM
- TGI [10]: 9.72 µM
- GI50 [11]: 5.21 µM
- TGI [11]: 18.3 µM
- GI50 [12]: 3.59 µM
- TGI [12]: 33.4 µM
- GI50 [13]: 4.1 µM
- TGI [13]: > 85.5 µM
- GI50 [14]: 5.04 µM
- TGI [14]: 19.8 µM
- GI50 [15]: 1.7 µM
- TGI [15]: 8.44 µM
- GI50 [16]: 4.65 µM
- TGI [16]: 21.7 µM
- GI50 [17]: 3.05 µM
- TGI [17]: 16.2 µM
- GI50 [18]: 2.4 µM
- TGI [18]: 13.6 µM
- GI50 [19]: 1.04 µM
- TGI [19]: > 33.4 µM
- GI50 [20]: 2.08 µM
- TGI [20]: 7.56 µM
- GI50 [21]: 2.99 µM
- TGI [21]: 11.1 µM
- GI50 [22]: 2.36 µM
- TGI [22]: 9.69 µM
- GI50 [23]: 3.9 µM
- TGI [23]: 20.9 µM
- GI50 [24]: 3.05 µM
- TGI [24]: 16.8 µM
- GI50 [25]: 1.59 µM
- TGI [25]: 10.2 µM
- GI50 [26]: 2.92 µM
- TGI [26]: 12.5 µM
- GI50 [27]: 2.31 µM
- TGI [27]: 11.3 µM
- GI50 [28]: 4.07 µM
- TGI [28]: > 50.1 µM
- GI50 [29]: 3.08 µM
- TGI [29]: 10.3 µM
- GI50 [30]: 1.42 µM
- TGI [30]: > 26.2 µM
- GI50 [31]: 2.88 µM
- TGI [31]: 35.2 µM
- GI50 [32]: 1.92 µM
- TGI [32]: 4.46 µM
- GI50 [33]: 0.534 µM
- TGI [33]: 3.83 µM
- GI50 [34]: 4.23 µM
- TGI [34]: 17.4 µM
- GI50 [35]: 4.26 µM
- TGI [35]: 17.1 µM
- GI50 [36]: 2.65 µM
- TGI [36]: > 26.1 µM
- GI50 [37]: 2.05 µM
- TGI [37]: 6.8 µM
- GI50 [38]: 0.79 µM
- TGI [38]: 9.21 µM
- GI50 [39]: 1.34 µM
- TGI [39]: 9.19 µM
- GI50 [40]: 2.75 µM
- TGI [40]: 8.68 µM
- GI50 [41]: 2.1 µM
- TGI [41]: 7.18 µM
- GI50 [42]: 3.54 µM
- TGI [42]: 17.5 µM
- GI50 [43]: 1.77 µM
- TGI [43]: 5.66 µM
- GI50 [44]: 1.98 µM
- TGI [44]: 7.97 µM
- GI50 [45]: 0.218 µM
- GI50 [46]: 1.41 µM
- TGI [46]: 5.09 µM
- GI50 [47]: 2.4 µM
- TGI [47]: 15.1 µM
- GI50 [48]: 3.3 µM
- TGI [48]: 13.5 µM
- GI50 [49]: 2.96 µM
- TGI [49]: 12.3 µM
- GI50 [50]: 7.52 µM
- TGI [50]: 22.2 µM
- GI50 [51]: 8.12 µM
- TGI [51]: 33.5 µM
- GI50 [52]: 2.29 µM
- TGI [52]: 15.4 µM
- GI50 [53]: 4.02 µM
- TGI [53]: 26.4 µM
- GI50 [54]: 4.09 µM
- TGI [54]: 32.9 µM
- GI50 [55]: 2.25 µM
- TGI [55]: 13.5 µM
- GI50 [56]: 3.35 µM
- TGI [56]: 19.2 µM
- GI50 [57]: 2.91 µM
- TGI [57]: 11.8 µM
- GI50 [58]: 3.32 µM
- TGI [58]: 25.2 µM
